# Source: ChEMBL document CHEMBL1177848, “Synthesis of novel 6,6a,7,8-tetrahydro-5H-naphtho[1,2-e]pyrimido[4,5-b][1,4]diazepines under microwave irradiation as potential anti-tumor agents” (2010)
# The source made the active and inactive calls. No cut-off for these calls is given here.
# What was measured:
# [1] = tested on: EKVX; experiment: Growth inhibition of human EKVX cells after 48 hrs by sulforhodamine B assay; assay type: functional
# [2] = tested on: HCT-116; experiment: Growth inhibition of human HCT116 cells after 48 hrs by sulforhodamine B assay; assay type: functional; details: HCT-116, 48 h
# [3] = tested on: ACHN; experiment: Growth inhibition of human ACHN cells at 1 uM after 48 hrs by sulforhodamine B assay; assay type: functional, cell-based
# [4] = tested on: MDA-MB-231; experiment: Growth inhibition of human MDA-MB-231 cells after 48 hrs by sulforhodamine B assay; assay type: functional; details: MDA-MB-231, 48 h; for CC50: read-out: LC50 (the source's name)
# [5] = tested on: SK-MEL-28; experiment: Growth inhibition of human SK-MEL-28 cells at 1 uM after 48 hrs by sulforhodamine B assay; assay type: functional, cell-based
# [6] = tested on: SW-620; experiment: Growth inhibition of human SW620 cells after 48 hrs by sulforhodamine B assay; assay type: functional; details: SW-620, 48 h
# [7] = tested on: OVCAR-3; experiment: Growth inhibition of human OVCAR-3 cells after 48 hrs by sulforhodamine B assay; assay type: functional; details: OVCAR-3, 48 h
# [8] = tested on: SR; experiment: Growth inhibition of human SR cells after 48 hrs by sulforhodamine B assay; assay type: functional
# [9] = tested on: MDA-MB-468; experiment: Growth inhibition of human MDA-MB-468 cells after 48 hrs by sulforhodamine B assay; assay type: functional; details: MDA-MB-468, 48 h; for CC50: read-out: LC50 (the source's name)
# [10] = tested on: OVCAR-4; experiment: Growth inhibition of human OVCAR4 cells at 1 uM after 48 hrs by sulforhodamine B assay; assay type: functional, cell-based
# [11] = tested on: SF-539; experiment: Growth inhibition of human SF539 cells at 1 uM after 48 hrs by sulforhodamine B assay; assay type: functional, cell-based
# [12] = tested on: OVCAR-4; experiment: Growth inhibition of human OVCAR4 cells after 48 hrs by sulforhodamine B assay; assay type: functional; details: OVCAR-4, 48 h
# [13] = tested on: NCI-H226; experiment: Growth inhibition of human NCI-H226 cells at 1 uM after 48 hrs by sulforhodamine B assay; assay type: functional, cell-based
# [14] = tested on: SN12C; experiment: Growth inhibition of human SN12C cells at 1 uM after 48 hrs by sulforhodamine B assay; assay type: functional, cell-based
# [15] = tested on: OVCAR-3; experiment: Growth inhibition of human OVCAR-3 cells at 1 uM after 48 hrs by sulforhodamine B assay; assay type: functional, cell-based
# [16] = tested on: U-251; experiment: Growth inhibition of human U251 cells after 48 hrs by sulforhodamine B assay; assay type: functional; details: U-251, 48 h
# [17] = tested on: RPMI-8226; experiment: Growth inhibition of human RPMI8226 cells after 48 hrs by sulforhodamine B assay; assay type: functional; details: RPMI-8226, 48 h
# [18] = tested on: HCT-15; experiment: Growth inhibition of human HCT15 cells after 48 hrs by sulforhodamine B assay; assay type: functional; details: HCT-15, 48 h
# [19] = tested on: KM12; experiment: Growth inhibition of human KM12 cells at 1 uM after 48 hrs by sulforhodamine B assay; assay type: functional, cell-based
# [20] = tested on: EKVX; experiment: Growth inhibition of human EKVX cells at 1 uM after 48 hrs by sulforhodamine B assay; assay type: functional, cell-based
# [21] = tested on: UO-31; experiment: Growth inhibition of human UO31 cells at 1 uM after 48 hrs by sulforhodamine B assay; assay type: functional, cell-based
# [22] = tested on: HOP-92; experiment: Growth inhibition of human HOP92 cells after 48 hrs by sulforhodamine B assay; assay type: functional; details: HOP-92, 48 h
# [23] = tested on: A498; experiment: Growth inhibition of human A498 cells at 1 uM after 48 hrs by sulforhodamine B assay; assay type: functional, cell-based
# [24] = tested on: COLO 205; experiment: Growth inhibition of human COLO205 cells after 48 hrs by sulforhodamine B assay; assay type: functional; details: COLO 205, 48 h
# [25] = tested on: A549; experiment: Growth inhibition of human A549 cells at 1 uM after 48 hrs by sulforhodamine B assay; assay type: functional, cell-based
# [26] = tested on: T47D; experiment: Growth inhibition of human T47D cells at 1 uM after 48 hrs by sulforhodamine B assay; assay type: functional, cell-based
# [27] = tested on: PC-3; experiment: Growth inhibition of human PC3 cells after 48 hrs by sulforhodamine B assay; assay type: functional; details: PC-3, 48 h
# [28] = tested on: SW-620; experiment: Growth inhibition of human SW620 cells at 1 uM after 48 hrs by sulforhodamine B assay; assay type: functional, cell-based
# [29] = tested on: SF-268; experiment: Growth inhibition of human SF268 cells at 1 uM after 48 hrs by sulforhodamine B assay; assay type: functional, cell-based
# [30] = tested on: M14; experiment: Growth inhibition of human M14 cells at 1 uM after 48 hrs by sulforhodamine B assay; assay type: functional, cell-based
# [31] = tested on: CCRF-CEM; experiment: Growth inhibition of human CCRF-CEM cells at 1 uM after 48 hrs by sulforhodamine B assay; assay type: functional, cell-based
# [32] = tested on: SF-295; experiment: Growth inhibition of human SF295 cells at 1 uM after 48 hrs by sulforhodamine B assay; assay type: functional, cell-based
# [33] = tested on: RXF 393; experiment: Growth inhibition of human RXF393 cells at 1 uM after 48 hrs by sulforhodamine B assay; assay type: functional, cell-based
# [34] = tested on: NCI/ADR-RES; experiment: Growth inhibition of human NCI/ADR-RES cells after 48 hrs by sulforhodamine B assay; assay type: functional
# [35] = tested on: HOP-62; experiment: Growth inhibition of human HOP62 cells at 1 uM after 48 hrs by sulforhodamine B assay; assay type: functional, cell-based
# [36] = tested on: Malme-3M; experiment: Growth inhibition of human MALME-3M cells after 48 hrs by sulforhodamine B assay; assay type: functional
# [37] = tested on: HL-60; experiment: Growth inhibition of human HL-60(TB) cells at 1 uM after 48 hrs by sulforhodamine B assay; assay type: functional, cell-based
# [38] = tested on: SK-MEL-5; experiment: Growth inhibition of human SK-MEL-5 cells after 48 hrs by sulforhodamine B assay; assay type: functional; details: SK-MEL-5, 48 h
# [39] = tested on: RPMI-8226; experiment: Growth inhibition of human RPMI8226 cells at 1 uM after 48 hrs by sulforhodamine B assay; assay type: functional, cell-based
# [40] = tested on: HT-29; experiment: Growth inhibition of human HT-29 cells after 48 hrs by sulforhodamine B assay; assay type: functional; details: HT-29, 48 h; for CC50: read-out: LC50 (the source's name)
# [41] = tested on: HCT-116; experiment: Growth inhibition of human HCT116 cells at 1 uM after 48 hrs by sulforhodamine B assay; assay type: functional, cell-based
# [42] = tested on: NCI-H522; experiment: Growth inhibition of human NCI-H522 cells at 1 uM after 48 hrs by sulforhodamine B assay; assay type: functional, cell-based
# [43] = tested on: KM12; experiment: Growth inhibition of human KM12 cells after 48 hrs by sulforhodamine B assay; assay type: functional; details: KM12, 48 h
# [44] = tested on: MDA-MB-435; experiment: Growth inhibition of human MDA-MB-435 cells at 1 uM after 48 hrs by sulforhodamine B assay; assay type: functional, cell-based
# [45] = tested on: LOX IMVI; experiment: Growth inhibition of human LOXIMVI cells after 48 hrs by sulforhodamine B assay; assay type: functional
# [46] = tested on: SK-MEL-2; experiment: Growth inhibition of human SK-MEL-2 cells at 1 uM after 48 hrs by sulforhodamine B assay; assay type: functional, cell-based
structure (smiles),measurement,setting,value
Nc1nc(N)c2c(n1)NC(c1ccccc1)C1CCc3ccccc3C1=N2 (configuration not stated),GI50,[1],2.68 µM
same,LC50,[1],78.3 µM
same,GI50,[2],2.97 µM
same,LC50,[2],38 µM
same,growth inhibition (GI),[3],inactive
same,GI50,[4],6.02 µM
same,CC50,[4],51.9 µM
same,growth inhibition (GI),[5],inactive
same,GI50,[6],6.3 µM
same,LC50,[6],53.3 µM
same,GI50,[7],3.48 µM
same,"LC50 (lethal concentration, 50% cell kill)",[7],39.4 µM
same,GI50,[8],4.52 µM
same,LC50,[8],> 100 µM
same,GI50,[9],0.473 µM
same,CC50,[9],20.8 µM
same,growth inhibition (GI),[10],inactive
same,growth inhibition (GI),[11],inactive
same,GI50,[12],3.06 µM
same,LC50 (50% lethal concentration),[12],62.3 µM
same,growth inhibition (GI),[13],inactive
same,growth inhibition (GI),[14],inactive
same,growth inhibition (GI),[15],inactive
same,GI50,[16],4.65 µM
same,LC50,[16],44 µM
same,GI50,[17],3.21 µM
same,LC50,[17],> 100 µM
same,GI50,[18],4.06 µM
same,LC50,[18],48.8 µM
same,growth inhibition (GI),[19],inactive
same,growth inhibition (GI),[20],inactive
same,growth inhibition (GI),[21],inactive
same,GI50,[22],2.55 µM
same,LC50 (50% lethal concentration),[22],40.6 µM
same,growth inhibition (GI),[23],inactive
same,GI50,[24],3.07 µM
same,LC50 (50% lethal concentration),[24],38.7 µM
same,growth inhibition (GI),[25],inactive
same,growth inhibition (GI),[26],inactive
same,GI50,[27],2.82 µM
same,LC50,[27],> 100 µM
same,growth inhibition (GI),[28],inactive
same,growth inhibition (GI),[29],inactive
same,growth inhibition (GI),[30],inactive
same,growth inhibition (GI),[31],inactive
same,growth inhibition (GI),[32],inactive
same,growth inhibition (GI),[33],inactive
same,GI50,[34],3.13 µM
same,LC50 (concentration killing 50% of cells),[34],> 100 µM
same,growth inhibition (GI),[35],inactive
same,GI50,[36],2.13 µM
same,LC50,[36],82.5 µM
same,growth inhibition (GI),[37],inactive
same,GI50,[38],0.638 µM
same,LC50,[38],6.35 µM
same,growth inhibition (GI),[39],inactive
same,GI50,[40],3.66 µM
same,CC50,[40],38 µM
same,growth inhibition (GI),[41],inactive
same,growth inhibition (GI),[42],inactive
same,GI50,[43],4.07 µM
same,LC50 (concentration killing 50% of cells),[43],39.7 µM
same,growth inhibition (GI),[44],inactive
same,GI50,[45],3.79 µM
same,LC50,[45],40.6 µM
same,growth inhibition (GI),[46],inactive
Nc1nc(N)c2c(n1)NC(c1ccc(Cl)cc1)C1CCc3ccccc3C1=N2 (configuration not stated),GI50,[1],3.62 µM
same,LC50,[1],96.5 µM
same,GI50,[2],3.72 µM
same,LC50,[2],38.6 µM
same,growth inhibition (GI),[3],inactive
same,GI50,[4],9.73 µM
same,CC50,[4],47.9 µM
same,growth inhibition (GI),[5],inactive
same,GI50,[6],8.23 µM
same,LC50,[6],54.9 µM
same,GI50,[7],6.46 µM
same,"LC50 (lethal concentration, 50% cell kill)",[7],43.6 µM
same,GI50,[8],1.73 µM
same,LC50,[8],36.3 µM
same,GI50,[9],1.6 µM
same,CC50,[9],54.5 µM
same,growth inhibition (GI),[10],inactive
same,growth inhibition (GI),[11],inactive
same,GI50,[12],6.45 µM
same,LC50 (50% lethal concentration),[12],50.9 µM
same,growth inhibition (GI),[13],inactive
same,growth inhibition (GI),[14],inactive
same,growth inhibition (GI),[15],inactive
same,GI50,[16],3.81 µM
same,LC50,[16],43.9 µM
same,GI50,[17],2.75 µM
same,LC50,[17],57.9 µM
same,GI50,[18],4.16 µM
same,LC50,[18],53.9 µM
same,growth inhibition (GI),[19],inactive
same,growth inhibition (GI),[20],inactive
same,growth inhibition (GI),[21],inactive
same,GI50,[22],2.26 µM
same,LC50 (50% lethal concentration),[22],31.9 µM
same,growth inhibition (GI),[23],inactive
same,GI50,[24],2.78 µM
same,LC50 (50% lethal concentration),[24],30.1 µM
same,growth inhibition (GI),[25],inactive
same,growth inhibition (GI),[26],inactive
same,GI50,[27],2.86 µM
same,LC50,[27],48.9 µM
same,growth inhibition (GI),[28],inactive
same,growth inhibition (GI),[29],inactive
same,growth inhibition (GI),[30],inactive
same,growth inhibition (GI),[31],inactive
same,growth inhibition (GI),[32],inactive
same,growth inhibition (GI),[33],inactive
same,GI50,[34],5.53 µM
same,LC50 (concentration killing 50% of cells),[34],43.8 µM
same,growth inhibition (GI),[35],inactive
same,GI50,[36],8.48 µM
same,LC50,[36],54 µM
same,growth inhibition (GI),[37],inactive
same,GI50,[38],0.5 µM
same,LC50,[38],6.56 µM
same,growth inhibition (GI),[39],inactive
same,GI50,[40],4.31 µM
same,CC50,[40],52.6 µM
same,growth inhibition (GI),[41],inactive
same,growth inhibition (GI),[42],inactive
same,GI50,[43],8.48 µM
same,LC50 (concentration killing 50% of cells),[43],45.6 µM
same,growth inhibition (GI),[44],inactive
same,GI50,[45],3.53 µM
same,LC50,[45],44.5 µM
same,growth inhibition (GI),[46],inactive
